Where no end group is shown, it is not given here.
Legend:
[1] = system: MDA231 cells; experiment: in vitro invasion of MDA231 cells; format: cell-based, human
[2] = system: RHAMMv4 overexpressing cells; experiment: podosome formation in RHAMMv4 overexpressing cells (cortactin marker); format: cell-based; conditions: RHAMMv4 overexpression
Text: (§1) To further illustrate the relationship between RHAMM, erk activity and podosome formation in transient stage cells, podosome formation is shown to be inhibited by inhibitors of erk activity. […] Overexpression of RHAMMv4 results in a sustained high production of podosomes, detected by the marker protein cortactin (A). […] Overexpression of RHAMMv4 enhances cell migration into wounds (D) compared to the parent 10T1/2 fibroblast line that produces little RHAMMv4 (E).

[3] = system: MDA231 human breast cancer cells; experiment: cell motility of MDA231 breast cancer cells; format: cell-based
[4] = system: RHAMMv4 overexpressing cells; experiment: cell migration into wounds / wound repair of RHAMMv4 overexpressing cells; format: cell-based
Text: as §1

[5] = system: ND4 transgenic mice; experiment: ND4 transgenic mouse model of multiple sclerosis (demyelination clinical signs); format: in vivo; conditions: 10 mg/kg intraperitoneally three times per week
Method: Briefly, transgenic mice (ND 4) bearing 70 copies of the transgene for DM20, a myelin proteolipid protein, were utilized for assignment of scores based upon clinical signs of demyelination. Clinical signs which were assessed included general shaking, seizures, head jerk, hind-limb and tail shiver, unsteadiness, wobbly gait and limp tail. Within each sign score between 0-4 was given: where zero score means absent and score 4 means constant and uncontrollable appearance of the sign of the disease. Experimental groups of mice were divided into 4; each group contained 5 animals: one normal, one ND 4 mouse untreated and three ND 4 mice treated with RHAMM mimetic—P-peptide. Animals were treated three times per week with 10 mg/kg of P-peptide intraperitonealy. Peptide was resuspended in 300 μl of PBS.
The severity of the clinical signs increase until maximum around 6 months with animals dying around 8 to 9 months of age. The clinical signs assessed include general shaking, seizures, head jerk, hind limb and tail shiver, wobbly gait and limp tail. The scale of zero (absence) to four (constant and uncontrollable movements) was used for each of the clinical signs. […]

[6] = system: NOD mice; experiment: NOD mouse model of type I diabetes mellitus; format: in vivo; conditions: 5 mg/kg i.p. three times a week for 23 weeks
Method: There are different colonies of NOD mice and there can be some variability between the colonies. The colony used develops the disease between 15-20 weeks of age and there is a 70-80% incidence of diabetes mellitus. The mice treated were divided into two groups of 10 animals; the first group being treated with P-16 peptide and the other group comprising of the control group, which was treated with saline. Once the NOD mice were 5 weeks old, the P-16 peptide was injected three times a week interperitoneally at a dose of 5 mg/kg for 23 weeks. The untreated mice and five mice from the treated group were sacrificed at 28 weeks of age. The remaining five mice from the treated group were taken off the peptide treatment at 28 weeks of age and were assessed for the disease after 16 weeks.
There are different colonies of NOD mice and there can be some variability between the colonies. The colony used develops the disease between 15-20 weeks of age and there is a 70-80% incidence of diabetes mellitus. The mice treated were divided into three groups of 10 animals; the first two groups being treated with S-3 and S-7 peptides, and the third group comprising of the control group, which was treated with saline. Once the NOD mice were 5 weeks old, the S-3 and S-7 peptides were injected three times a week intraperitoneally at a dose of 0.1 mg/kg for 23 weeks.

[7] = system: EAE in SJL/J mice; experiment: EAE mouse model for multiple sclerosis; format: in vivo; conditions: 5 mg/kg i.p. daily; failed to reach statistical significance
Method: Acute EAE was induced by immunization of 3 months old SJL/J female mice (Jackson Lab.; Bar Harbor, Me.) with the MBP and PTX pertussis toxin. Each animal received a sub-cutaneous injection at tail base of 200 μg MBP in 0.1 ml of CFA and received an intravenous injection of 200 ng of PTX. Pertussis toxin was injected again 48 hours later. Mice (4 animals per group) were treated with one of the following treatments through intraperitoneal injections: P-32 peptide at a dose of 5 mg/kg daily; S-7 peptide at a dose of 0.1 mg/kg daily starting on the day of first immunization. Treatment was stopped at time of sacrifice. Mice were monitored daily from day 7 after immunization for clinical signs of EAE and were scored on a scale of 0 to 5. A score of 0 represented the absence of signs while a score of 5 was given to moribund animals.

[8] = binding to hyaluronic acid (HA)
Text: The present invention provides a method of similar sensitivity but which is cheaper and more reliable. The method is based on using HA binding partners discovered using the techniques described above for detecting RHAMM binding partners. Using a phage display library to bind to biotinylated HA permitted identification of five particular species of HA binding motifs described in SEQ. ID NOS: 6-10. This was accomplished by isolating phage that attached to HA which were further isolated, rescreened twice and recloned. The clones were then bound to biotinylated HA-sepharose beads and only those phage that could be released with unlabeled HA were retrieved, recloned and sequenced. Five clones comprising the sequences identified above were detected. These sequences all bind to HA and are useful for detecting HA in serum and tissues in an assay described below.

[9] = system: excisional skin wound; experiment: rat punch biopsy excisional skin wound model; format: in vivo; conditions: local application
[10] = system: bleomycin-induced lung fibrosis; experiment: bleomycin-induced lung injury / fibrosis model; format: in vivo
Text: As described in more detail below, the RHAMM peptide mimetics prevent these pathological events, particularly recruitment and activation of macrophages, from occurring following bleomycin-induced lung fibrosis (FIG. 32). In particular, the infiltration of inflammatory cells and local responses such as fibrosis is completely absent with treatment. […] Therefore, these reagents should be effective for treating lung diseases that involve recruiting macrophages and inflammatory cells, as well as fibrosis. FIG. 34 illustrates motility of BAL cells four days after injury in response to administration of RHAMM peptides. […] Values represent mean and standard error with three animals studied for each condition and at least 20 cells tracked per animal studied. Increased N-acetyl-β-glucosamimidase activity is a known marker for fibrosis in lung tissue. […] Briefly, bleomycin injury results in an increased glucosamimidase activity (* p<0.01 versus controls and saline animals). […] Values represent mean and standard error with five animals studied for each condition. FIG. 35B illustrates that mRNA of collagen type la in lungs harvested 4 days after injury is reduced in response to administration of HA binding Peptide A. Collagen type la is common indicator of fibrosis in lung tissue injury models as used throughout this invention. […] The data shown are representative of three independent experiments. The ability of HA binding peptides to inhibit fibrosis is further illustrated by histological analysis. FIG. 36 are micrographs from a histological analysis of lung tissue treated with and without HA binding Peptide A after bleomycin injury. Panels (a-c) show tissue after treatment with saline alone, and panels (d-f) show tissues injured by bleomycin treatment.

[11] = system: human fibroblasts; experiment: velocity of cell locomotion of human fibroblasts on fibronectin; format: cell-based; conditions: 0.1-50 ng/ml, 16 hrs
Method: To quantify the effect of RHAMM sequence (amino acid residues 423-432; 423-432AA) to alter velocity of cell locomotion human fibroblasts were seeded on T-12.5 fibronectin coated flasks using A-MEM supplemented with glucose and 10% FBS. 2.5×10^4 cells were seeded and cells incubated for 4 hrs at 37° C. After incubation time cells were treated with increasing concentrations of RHAMM sequence peptide (423-432 AA, 0.1, 1.0, 5.0, 10 and 50 ng/ml) and cell locomotion was monitored over the period of 16 hrs on a 37° C. using 10× modulation objective (Zeiss, Germany) attached to a Zeiss Axiovert 100 inverted microscope equipped with Hoffman Modulation contrast optical filters (Greenvale, N.Y.). Cell images were captured with a CCD video camera module attached to a Hamamatsu CCD camera controller. Motility was assessed using Northern Exposure 2.9 image analysis software (Empix Imaging, Mississauga, Ontario). Nuclear displacement of 7-10 cells was measured and data were subjected to statistical analysis. Statistically significant (P<0.05) differences between means were assessed by the unpaired Student's T-test method, performed using Microsoft Excel '97 software.

[12] = system: invasive cells; experiment: motility of invasive cells treated with RHAMM exon peptides or antibodies (FIG. 16); format: cell-based; conditions: P<0.001 for peptide vs scrambled peptide
Text: This effect is quantified in the graph shown in 16C and is highly significant (P<0.001, student's T test).

[13] = target: RHAMM binding to fibronectin (Homo sapiens, UniProt P02751); experiment: RHAMM binding to fibronectin (ELISA)
Chain of RHAMM binding to fibronectin (P02751 32-2477): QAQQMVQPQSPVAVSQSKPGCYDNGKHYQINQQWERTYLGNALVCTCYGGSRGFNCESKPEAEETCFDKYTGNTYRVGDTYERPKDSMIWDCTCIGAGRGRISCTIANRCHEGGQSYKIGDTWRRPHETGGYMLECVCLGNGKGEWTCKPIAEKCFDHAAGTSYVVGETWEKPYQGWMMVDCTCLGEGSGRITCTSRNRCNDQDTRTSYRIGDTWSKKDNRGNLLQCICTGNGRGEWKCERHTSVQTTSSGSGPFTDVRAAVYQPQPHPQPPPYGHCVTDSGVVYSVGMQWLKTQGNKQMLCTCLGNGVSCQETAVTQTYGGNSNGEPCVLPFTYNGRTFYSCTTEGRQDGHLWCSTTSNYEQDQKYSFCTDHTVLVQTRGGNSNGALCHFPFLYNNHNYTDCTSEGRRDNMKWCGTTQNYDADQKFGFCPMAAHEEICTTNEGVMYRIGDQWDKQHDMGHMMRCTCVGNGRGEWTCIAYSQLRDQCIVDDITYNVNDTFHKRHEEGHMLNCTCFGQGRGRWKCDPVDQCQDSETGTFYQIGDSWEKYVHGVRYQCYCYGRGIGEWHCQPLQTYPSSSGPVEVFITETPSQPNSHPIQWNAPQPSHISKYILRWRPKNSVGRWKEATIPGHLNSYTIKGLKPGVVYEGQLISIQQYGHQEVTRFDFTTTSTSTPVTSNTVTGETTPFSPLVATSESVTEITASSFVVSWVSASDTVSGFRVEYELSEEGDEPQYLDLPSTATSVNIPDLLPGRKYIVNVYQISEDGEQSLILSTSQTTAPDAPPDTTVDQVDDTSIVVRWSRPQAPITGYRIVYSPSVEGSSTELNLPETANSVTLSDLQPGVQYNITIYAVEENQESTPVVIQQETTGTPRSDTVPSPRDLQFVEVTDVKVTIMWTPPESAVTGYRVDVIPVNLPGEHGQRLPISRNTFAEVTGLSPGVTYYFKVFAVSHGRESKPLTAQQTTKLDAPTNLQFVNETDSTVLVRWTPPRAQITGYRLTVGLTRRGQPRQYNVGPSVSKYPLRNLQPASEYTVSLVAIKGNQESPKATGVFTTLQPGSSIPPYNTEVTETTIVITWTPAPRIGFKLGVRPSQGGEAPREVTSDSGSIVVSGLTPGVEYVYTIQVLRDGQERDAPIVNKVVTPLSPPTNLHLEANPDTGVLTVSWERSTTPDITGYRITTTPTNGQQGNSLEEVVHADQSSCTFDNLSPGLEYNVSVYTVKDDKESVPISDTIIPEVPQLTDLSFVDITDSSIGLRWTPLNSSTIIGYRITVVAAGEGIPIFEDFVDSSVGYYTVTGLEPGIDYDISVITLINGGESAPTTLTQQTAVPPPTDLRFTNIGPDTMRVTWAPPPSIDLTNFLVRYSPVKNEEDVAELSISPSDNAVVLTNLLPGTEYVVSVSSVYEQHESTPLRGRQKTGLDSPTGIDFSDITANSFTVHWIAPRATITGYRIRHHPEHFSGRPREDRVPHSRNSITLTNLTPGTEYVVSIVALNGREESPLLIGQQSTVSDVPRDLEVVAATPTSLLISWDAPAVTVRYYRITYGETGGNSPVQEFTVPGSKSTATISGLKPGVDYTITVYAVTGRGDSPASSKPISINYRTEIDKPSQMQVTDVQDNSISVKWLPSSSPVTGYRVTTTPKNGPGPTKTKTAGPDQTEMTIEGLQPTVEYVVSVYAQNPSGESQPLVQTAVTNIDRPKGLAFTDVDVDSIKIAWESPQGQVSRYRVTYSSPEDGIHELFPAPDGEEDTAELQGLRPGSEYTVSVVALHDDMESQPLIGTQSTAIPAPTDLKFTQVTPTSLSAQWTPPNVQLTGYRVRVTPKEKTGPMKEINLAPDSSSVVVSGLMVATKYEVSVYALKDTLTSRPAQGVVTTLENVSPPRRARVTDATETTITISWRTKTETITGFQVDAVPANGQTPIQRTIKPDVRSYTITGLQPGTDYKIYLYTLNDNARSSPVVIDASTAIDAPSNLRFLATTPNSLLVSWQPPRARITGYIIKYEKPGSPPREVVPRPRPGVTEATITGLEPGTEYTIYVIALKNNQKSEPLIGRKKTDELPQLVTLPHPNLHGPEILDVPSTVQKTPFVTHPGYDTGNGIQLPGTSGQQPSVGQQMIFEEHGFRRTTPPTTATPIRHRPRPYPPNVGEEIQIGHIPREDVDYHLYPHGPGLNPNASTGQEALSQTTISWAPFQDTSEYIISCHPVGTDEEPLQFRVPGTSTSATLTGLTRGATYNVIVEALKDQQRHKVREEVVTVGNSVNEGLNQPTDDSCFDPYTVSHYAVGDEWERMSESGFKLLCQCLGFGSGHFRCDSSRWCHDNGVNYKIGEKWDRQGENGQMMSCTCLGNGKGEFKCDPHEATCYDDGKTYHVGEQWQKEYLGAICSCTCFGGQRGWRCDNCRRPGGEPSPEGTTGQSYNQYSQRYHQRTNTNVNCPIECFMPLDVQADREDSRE
Text: FIG. 21 further illustrates that RHAMM binds to the CS-1 fragment of fibomectin and not to the RGDS sequence which was previously considered to be a critical sequence for fibronectin signaling of matrix protein degradation.

[14] = system: LR21 cells; experiment: podosome formation in LR21 cells treated with exon 4 peptide (cortactin or CAS); format: cell-based
Text: Podsomome formation was visualized using either fluorescent cortactin or CAS, the latter being a particularly useful marker for podosomes as illustrated by the micrographs in FIG. 17B.

[15] = target: erk1 His-6-tagged fusion protein; experiment: peptide competition of erk1 His-6 binding to RHAMM v4 beads; D4 and D5 peptides present together

Molecule: COc1cccc(-c2cc(=O)c3ccccc3o2)c1N [PD09058]
- cell invasion in vitro [1]: blocks cell invasion
- number of podosomes [2]: reduces the number of podosomes
- cell motility / locomotion [3]: strongly reduces cellular locomotion
- wound repair (cell migration into wounds) [4]: blocks wound repair

Molecule: CSTMMSRSHKTRSHHV [P-peptide, CSTMMSRSHKTRSHHV]
- toxicological or lethal effects on animals [5]: without observing toxicological or lethal effects
- toxicity [6]: absence of any toxicity

Molecule: KQKIKHVVKLKDENSQLKSEVSKLRCQLAKKK [P-32, specific RHAMM region]
- decrease in mean clinical score [7]: 20%

Molecule: RGGGGGGGR (Peptide that binds a hyalauronan) [peptide D, reference compound]
- binding to HA [8]: does not bind HA
- infiltration of macrophages in wounded biopsies (Glucosimimidase activity) [9]: does not inhibit macrophage infiltration

Molecule: RGGGRGGGR (Peptide that binds a hyalauronan) [C]
- infiltration of macrophages in wounded biopsies (Glucosimimidase activity) [9]: inhibited the infiltration of macrophages

Molecule: RGGGRGGRR (Peptide that binds a hyalauronan) [peptide B]
- infiltration of macrophages in wounded biopsies (Glucosimimidase activity) [9]: inhibited the infiltration of macrophages

Molecule: RGGGRGRRR (Peptide that binds a hyalauronan) [Peptide A]
- increase in collagen type la mRNA in lungs ([10]; 4 days after injury): completely inhibited
- N-acetyl-β-glucosamimidase activity of BAL cells ([10]; 7 days after bleomycin injury): significantly decreased glucosamimidase activity
- lung histology ([10]; after bleomycin injury): normal lung architecture
- motility of BAL cells (macrophages) ([10]; four days after bleomycin injury, peptide given prior to injury): significantly lower cell locomotion
- infiltration of macrophages in wounded biopsies (Glucosimimidase activity) [9]: inhibited the infiltration of macrophages

Molecule: RHAMM sequence (423-432 AA): RHAMM sequence peptide, amino acid residues 423-432 (SEQ ID NO 24) (KLRSQLVKRKQ; Homo sapien)
- inhibition of migration of human fibroblasts [11]: up to 40%

Molecule: SEQ. ID NO: 15: peptide mimicking RHAMM exon 3, used to raise anti-exon 3 antibodies (KLQATQKDLTESKG; listed as Mus musculus)
- motility of invasive cells [12]: block the motility of invasive cells
- binding of RHAMM to fibronectin [13]: able to block the binding of intact RHAMM to fibronectin

Molecule: SEQ. ID NO: 16: peptide from murine RHAMM exon 4 (VSIEKEKIDEKCETEKLLEYIQEIS; listed as Mus musculus)
- formation of podosomes [14]: blocks the formation of podosomes

Molecule: QEKYNDTAQSLRDVTAQLESV [D4 peptide of RHAMM]
- reduction of erk1 binding to v4 [15]: 90%

Molecule: KQKIKHVVKLKDENSQLKSEVSKLRSQLVKRK [D5 peptide of RHAMM]
- reduction of erk1 binding to v4 [15]: 90%

From patent US6911429B2, “Compositions and methods for treating cellular response to injury and other proliferating cell disorders regulated by hyaladherin and hyaluronans” (Transition Therapeutics Inc., priority 1999, dated 2005)
